Data on three compounds can be found in paper PMC5041104, “Structure-based discovery of two antiviral inhibitors targeting the NS3 helicase of Japanese encephalitis virus” (Scientific Reports, 2016).

pEC50, pIC50, pKi: −log10 of the molar value.

Data set [1] relates to JEV. Put plainly: Determination of EC50 (CPE inhibition, Celltiter-Glo cell viability of JEV-infected BHK-21 cells). The settings on record: Japanese encephalitis virus, BHK-21, 120 h, read-out: 50% effective concentration (EC50).
The subject of data set [2] is JEV. Briefly: Antiviral effect by indirect immunofluorescence assay (IFA) of NS5 in BHK-21 cells. The settings on record: 48 h, JEV-infected control 84.03%.
Data set [3] relates to JEV. Briefly: Antiviral effect by Western blot of JEV envelope (E) protein in BHK-21 cells. The data set is classed as cell-based, Japanese encephalitis virus. The settings on record: 48 h, normalized to GAPDH; for reduction of expression of E protein: 20 μM, relative to non-compound treated group.
For data set [4], the system named is JEV. Briefly: Plaque reduction assay in BHK-21 cells. The settings on record: 48 h, untreated control 3.03 × 10^6 PFU/mL.
Data set [5] deals with JEV NS3 helicase (unwinding activity) (Japanese encephalitis virus, UniProt P27395). Briefly: NS3 helicase unwinding inhibition, fluorescence resonance energy transfer (FRET) assay. The settings on record: for highest inhibitory level on NS3 helicase unwinding activity: concentration-dependent inhibition, levels reaching as high as; for inhibition of NS3 unwinding activity in helicase inhibitor screening: screening of 41 selected compounds, FRET assay.
JEV NS3 helicase (unwinding activity), sequence (P27395 1684-2123): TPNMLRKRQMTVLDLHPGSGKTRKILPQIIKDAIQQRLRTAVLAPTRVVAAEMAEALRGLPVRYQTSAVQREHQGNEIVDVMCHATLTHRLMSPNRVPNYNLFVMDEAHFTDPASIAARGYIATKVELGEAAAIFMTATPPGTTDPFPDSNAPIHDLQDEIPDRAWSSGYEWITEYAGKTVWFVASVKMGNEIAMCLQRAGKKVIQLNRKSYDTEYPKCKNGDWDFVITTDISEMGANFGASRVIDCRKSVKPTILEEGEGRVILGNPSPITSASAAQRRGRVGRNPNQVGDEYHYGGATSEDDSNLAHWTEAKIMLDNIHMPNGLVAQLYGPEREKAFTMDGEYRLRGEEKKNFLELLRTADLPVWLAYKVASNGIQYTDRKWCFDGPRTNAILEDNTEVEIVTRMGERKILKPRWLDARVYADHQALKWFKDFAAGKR

For data set [6], the target named is JEV NS3 helicase (ATPase activity) (Japanese encephalitis virus, UniProt P27395). Briefly: Effect on the ATPase activity of NS3 helicase (Kinase-Glo Plus luminescence). Format: biochemical. The settings on record: 200 μM compound, 30 min. As for the experimental part: The effect of each compound on ATPase activity was tested using a nonradioactive method as previously described. […] The reaction mixture comprised 3 μM of recombinant NS3 helicase and 100 μM ATP in ATPase reaction buffer (20 mM Tris-HCl pH 8.0, 50 mM NaCl, 10 mM MgCl2). Three reactions were conducted for each test. After incubation at 37 °C for 30 min, an equal volume of Kinase-Glo Plus reagent (Promega) was added to each well to quantitate the remaining ATP. The luminescence value of each well was tested by an Infinite 200 PRO multimode reader.
JEV NS3 helicase (ATPase activity), sequence (P27395 1684-2123): as above

Data set [7] in a line: Compound cytotoxicity (cell viability). The settings on record: hamster.
Data set [8] has as its system WNV. The settings on record: WNV in cells; read-out: EC50, inhibitory effect on the virus in cells; cited from earlier work.
Data set [9] addresses WNV NS2B-NS3 protease. The settings on record: cited from earlier work.

Consider `CS(=O)(=O)c1ccc2nc(NC(=O)c3ccc(Cn4cc([N+](=O)[O-])cn4)cc3)sc2c1` [compound 1], for which the pEC50 in [1] is 4.59. For the same compound, the “level of JEV-positive cells (NS5 positive)” value turned out to be 58.71% in data set [2] (5 μM) and 13.29% in [2] (25 μM). In addition, the “reduction of expression of E protein” value in data set [3] was 70.1%. For the same compound, the average virus titer was 2.7 × 10^4 PFU/mL in [4] (20 μM), 2.1 × 10^4 PFU/mL in data set [4] (30 μM) and 8.9 × 10^3 PFU/mL in [4] (40 μM). This compound also showed a pIC50 in [5] of 3.83. Moreover, in data set [5], the “highest inhibitory level on NS3 helicase unwinding activity” value is recorded as 79%. Also, in [5], the “inhibition of NS3 unwinding activity in helicase inhibitor screening” value is “more than 60%”. Also, the “inhibition of ATPase activity of NS3 helicase” value in data set [6] is reported as “do not inhibit the ATPase activity”. Besides, the CC50 at 120 h in data set [7] amounted to 168 µM.

Turning to `CCCC(=O)Nc1nc2ccc(NC(=S)NC(=O)c3cccs3)cc2s1` [compound 2], in data set [1], the pEC50 was 4.63. In addition, the “level of JEV-positive cells (NS5 positive)” value in data set [2] (5 μM) came out at 50.40%; in [2] (25 μM) it was 10.07%. In addition, the “inhibition of E protein expression” value in data set [3] (5 μM) came to 86.3%. In addition, the “reduction of expression of E protein” value in [3] is 94.8%. The average virus titer in data set [4] (10 μM) was 4.65 × 10^4 PFU/mL; in data set [4] (20 μM), 3.6 × 10^4 PFU/mL; in [4] (30 μM), 2.6 × 10^4 PFU/mL; in data set [4] (40 μM), 1.8 × 10^4 PFU/mL. Moreover, in data set [5], the pIC50 is 3.82. In addition, in data set [5], the “highest inhibitory level on NS3 helicase unwinding activity” value stood at 73%. In addition, the “inhibition of NS3 unwinding activity in helicase inhibitor screening” value in [5] was “more than 60%”. Besides, the “inhibition of ATPase activity of NS3 helicase” value in data set [6] is recorded as “do not inhibit the ATPase activity”. The compound further displayed a viability at 120 h, 200 µM in [7] of more than 60%.

In the case of phenacetyl-KKR-Aldehyde, the pEC50 in data set [8] is 5.80. Moreover, in data set [9], the pKi was 8.05.
